Reference: patent US11318152B2, “Pharmaceutical agent for improving autism spectrum disorder and mental disease” (MATSUTANI CHEMICAL INDUSTRY CO., LTD., priority 2018, dated 2022)

Experiments:
[1] = tested on: vasopressin (AVP) neurons; test: double immunostaining for vasopressin and c-Fos after oral administration; format: in vivo, C57BL/6J male mice; details: oral 3 g/kg, 90 minutes after administration
Protocol: (§1) For brain regions that are activated by the oral administration of D-allulose, the expression levels of a neuronal activation marker (c-Fos) were analyzed by the immunostaining method. c-Fos is one of immediate early genes, is a nuclear protein whose expression level increases along with activation of nerves, and thus can be utilized as a neuronal activation marker. C57BL/6J male mice were used as experimental animals and were acclimatized to an environment through preliminary breeding and handling for 1 week or more in individual cages. Saline or D-allulose (1 or 3 g/kg) was orally intragastrically administered to the mice which were fasted for one night, and 90 minutes after the administration, the mice were perfusion fixed in a 4% paraformaldehyde solution and the brains were resected. The organs were postfixed in a 4% paraformaldehyde solution to prepare frozen section specimens. This frozen section specimen was used to immunostain c-Fos. In the case of double immunostaining for oxytocin/vasopressin and c-Fos, the perfusion fixation and the postfixation were conducted in a mixed solution of 4% paraformaldehyde and 0.2% picric acid. In the experiment for analyzing c-Fos positive neurons in the vasopressin (AVP) neurons of paraventricular nucleus (PVN) (FIG. 2C and FIG. 2D), C57BL/6J male mice of saline group: n=4, 3 g/kg D-allulose group: n=6 were used. In the experiment for analyzing c-Fos positive neurons in the oxytocin (OXT) neurons or vasopressin (AVP) neurons of paraventricular nucleus (PVN) (FIG. 3A and FIG. 3B), C57BL/6J male mice of saline group n=4, 3 g/kg D-allulose group: n=6 were used. In the experiment for analyzing c-Fos positive neurons in the oxytocin (OXT) neurons or vasopressin (AVP) neurons of the new region (FIG. 4A and FIG. 4B), C57BL/6J male mice of saline group: n=4, 3 g/kg D-allulose group: n=6 were used. The obtained results are represented by the average values and the standard errors, the statistical testing used the unpaired t-test, * is described by the P value of less than 5% and ** is described by the P value of less than 1%.

C57BL/6J male mice [2] = test: Open field test; format: in vivo; details: 5 minutes exploration
Excerpt: The open field test is a test that evaluates spontaneous activity, anxiety-like behavior, and the like in a novel environment by measuring the distance traveled, the number of rearings, the stereotyped behavior, the time spent in the center section, and the like under the novel environment. A mouse is placed in an open field, which is a novel and bright environment for a mouse, and is allowed to freely explore the open field for a certain period of time. The open field has a circular or square shape, and the size, in the case of a square, varies from a side of over 1 m to 30 cm or less. The experiment time is approximately 5 minutes in general, and significant overactivity, dormancy, and the like can be detected through observation for such a short period of time. In addition, a change in the behavior of an animal over time under a novel environment can be observed by recording for a long period of time. Since it is said that mice get accustomed to the open field environment by 30 minutes to approximately 2 hours, the experiment time is often set between 30 minutes to 3 hours. Also, the open field test is often used for analyzing the phenotyping of gene-modified mice and testing the reactivity to pharmaceutical agents. […] The duration of time spent in the center square (9×9 […]) during an exploratory behavior time of 5 minutes was measured.

[3] = tested on: paraventricular nucleus (PVN), supraoptic nucleus (SON) and new region of the hypothalamus; test: c-Fos immunostaining of hypothalamus sections after oral administration; format: in vivo, C57BL/6J male mice; details: oral 1 or 3 g/kg, fasted mice, 90 minutes after administration, vs saline (FIG. 1A)
Protocol: For brain regions that are activated by the oral administration of D-allulose, the expression levels of a neuronal activation marker (c-Fos) were analyzed by the immunostaining method. c-Fos is one of immediate early genes, is a nuclear protein whose expression level increases along with activation of nerves, and thus can be utilized as a neuronal activation marker. C57BL/6J male mice were used as experimental animals and were acclimatized to an environment through preliminary breeding and handling for 1 week or more in individual cages. Saline or D-allulose (1 or 3 g/kg) was orally intragastrically administered to the mice which were fasted for one night, and 90 minutes after the administration, the mice were perfusion fixed in a 4% paraformaldehyde solution and the brains were resected. The organs were postfixed in a 4% paraformaldehyde solution to prepare frozen section specimens. This frozen section specimen was used to immunostain c-Fos. In the case of double immunostaining for oxytocin/vasopressin and c-Fos, the perfusion fixation and the postfixation were conducted in a mixed solution of 4% paraformaldehyde and 0.2% picric acid. Note that in the experiment for analyzing c-FOS expression level (FIG. 1A to FIG. 1D), C57BL/6J male mice of saline group: n=7, 1 g/kg and 3 g/kg D-allulose group: n=5 each were used. […]

oxytocin (OXT) neurons = test: double immunostaining for oxytocin and c-Fos after oral administration; format: in vivo, C57BL/6J male mice; details: oral 3 g/kg, 90 minutes after administration
Protocol: as §1, with “in the oxytocin (OXT) neurons of paraventricular nucleus (PVN) (FIG. 2A and FIG. 2B), C57BL/6J male mice of saline group: n=4, 3 g/kg D-allulose group: n=6 were used. In the experiment for analyzing c-Fos positive neurons in the vasopressin (AVP)” for “in the vasopressin (AVP)”, “were used. […]” for “were used. The obtained results are represented by the average values and the standard errors, the statistical testing used the unpaired t-test, * is described by the P value of less than 5% and ** is described by the P value of less than 1%.”

oxytocin mRNA = oxytocin mRNA expression in hypothalamus, quantitative real-time PCR; format: in vivo, C57BL/6J male mice; details: oral 3 g/kg, 2 hours after administration, vs saline-administered group, relative to 36b4 (FIG. 5)
Protocol: (§2) C57BL/6J male mice (saline group: n=8, D-allulose group: n=9) were used as experimental animals and were acclimatized to an environment through preliminary breeding and handling for 1 week or more in individual cages. Saline or D-allulose (3 g/kg) was orally intragastrically administered to the mice which were fasted for one night, and 2 hours after the administration, the brain's hypothalamus was resected under anesthesia. cDNA was synthesized using the total RNA in hypothalamus as a template. The mRNA expression levels of oxytocin and vasopressin were quantified by the quantitative real-time PCR method. As the housekeeping gene, 36b4 was used. The mRNA expression levels were quantified in accordance with the ΔΔCt method. The target gene expression level in each sample was corrected with the expression level of 36b4 to obtain the relative expression level to 36b4 (ΔCT=the CT value of 36b4−the CT value of the target gene, the relative expression level=2ΔCT).
(§3) Moreover, the mRNA expression level ratio with the average value of the relative expression level of the saline group being set to 1 (the average value of the relative gene expression level of the D-allulose group to 36b4/the average value of the relative expression level of the saline group to 36b4) was obtained to analyze the change in gene expression level in the administration of D-allulose. […]

vasopressin mRNA = vasopressin mRNA expression in hypothalamus, quantitative real-time PCR; format: in vivo, C57BL/6J male mice; details: oral 3 g/kg, 2 hours after administration, vs saline-administered group, relative to 36b4 (FIG. 5)
Protocol: as §2, §3

C57BL/6J male mice [4] = test: Sociality test (social interaction test); format: in vivo; details: 10 minutes, vs saline, p<0.05 (FIG. 7B)
Protocol: The sociality test (also called the social interaction test) is an open field test using 2 individual mice that meet for the first time in order to investigate the sociality. The fundamental procedure of the sociality test is the same as that of the open field test using 1 individual member. However, at the time of starting the behavioral observation, mice are placed at the opposing corners of the field and their moving is recorded as moving picture for 10 minutes. This test is intended to evaluate the sociality of mice by measuring frequencies and times of social behaviors such as sniffing, grooming, attack, and tail-rattling between 2 individual members. C57BL/6J male mice (8-week old) were bred for 1 week under a free-feeding condition with a light-dark cycle of 12 hours and were subjected to the open field and sociality tests. Handling and gavage training was conducted for 4 days before the test. In order to evaluate the sociality with a same-sex mouse, each mouse was placed together with a mouse (new mouse) which it met for the first time in a breeding cage (27×27×20 cm^3) and an accumulation time of the exploratory behavior against the new mouse during an exploratory behavior time of 10 minutes was measured.

For `O=C(CO)[C@H](O)[C@H](O)[C@H](O)CO` [D-allulose], the “activation (c-Fos) of the vasopressin (AVP) neuron of the paraventricular nucleus (PVN)” value ([1]; vs saline (FIGS. 2C, 2D)) was “activated”, the “activation (c-Fos) of the vasopressin neurons of the supraoptic nucleus (SON)” value ([1]; vs saline (FIGS. 3A, 3B)) was “activated” and the “activation (c-Fos) of the vasopressin neurons in the new region of the hypothalamus” value ([1]; vs saline (FIGS. 4A, 4B)) was “activated”. The “anxiety behavior: duration of time spent in the center square” value (C57BL/6J male mice [2]; 1 g/kg oral 30 minutes before test, vs saline (FIG. 6B)) was “no significant result”, the “anxiety behavior: duration of time spent in the center square” value (C57BL/6J male mice [2]; 3 g/kg oral 30 minutes before test, vs saline, p<0.05 (FIG. 6B)) was “significantly improved” and the “c-Fos expression level in the paraventricular nucleus (PVN), the supraoptic nucleus (SON), and a new region of the hypothalamus” value [3] was “significantly facilitated”. The “c-Fos expression level in the oxytocin (OXT) neuron of the paraventricular nucleus (PVN)” value (oxytocin (OXT) neurons; vs saline (FIGS. 2A, 2B)) was “significantly increased”, the “activation (c-Fos) of the oxytocin neurons of the supraoptic nucleus (SON)” value (oxytocin (OXT) neurons; vs saline (FIGS. 3A, 3B)) was “activated” and the “activation (c-Fos) of the oxytocin neurons in the new region of the hypothalamus” value (oxytocin (OXT) neurons; vs saline (FIGS. 4A, 4B)) was “activated”. For the same molecule, the “expression of the mRNA of oxytocin in the hypothalamus” value (oxytocin mRNA) was “significantly enhanced”, the “expression of the mRNA of vasopressin in the hypothalamus” value (vasopressin mRNA) was “significantly enhanced” and the “social behavior: accumulation time of exploratory behavior against the new mouse” value (C57BL/6J male mice [4]; 1 g/kg oral) was “significantly facilitated”. The “social behavior: accumulation time of exploratory behavior against the new mouse” value (C57BL/6J male mice [4]; 3 g/kg oral) was “significantly facilitated”.
